# In patent US20240293553A1, “P-SELECTIN INHIBITORS AND USES THEREOF” (Beth Israel Deaconess Medical Center, Inc., priority 2021, published 2024):
# “And” between values parts separate entries of the source, which are not always exact repeats. Equal values may be shown once. Read-outs that look alike come from different tables or passages of the source. Square brackets hold non-standard residues; d marks the D form. Ends that are not written are not given here. Peptide text beside a SMILES is read from it. * marks the point of attachment. X1 = CC(=O)N[C@H]1[C@H](OCCn2cc(C*)nn2)O[C@H](CO)[C@@H](O[C@@H]2O[C@H](CO)[C@H](O)[C@H](O[C@]3(C(=O)O)C[C@H](O)[C@@H](NC(C)=O)[C@H]([C@H](O)[C@H](O)CO)O3)[C@H]2O)[C@@H]1O[C@@H]1O[C@@H](C)[C@@H](O)[C@@H](O)[C@@H]1O; Phe(4-CH2SO3H) = N[C@@H](Cc1ccc(CS(=O)(=O)O)cc1)C(=O)O
# Assays:
# [1] = target: T1, murine P-selectin-Fc chimera (Mus musculus, UniProt Q01102); experiment: Flow cytometry inhibition of P-selectin-Fc chimera binding to murine leukocytes; format: cell-based; conditions: P-selectin-Fc chimera 3 μg/mL
# T1 construct: purchased R&D Systems
# T1 sequence (Q01102 with tags, fused parts or gaps limits assumed): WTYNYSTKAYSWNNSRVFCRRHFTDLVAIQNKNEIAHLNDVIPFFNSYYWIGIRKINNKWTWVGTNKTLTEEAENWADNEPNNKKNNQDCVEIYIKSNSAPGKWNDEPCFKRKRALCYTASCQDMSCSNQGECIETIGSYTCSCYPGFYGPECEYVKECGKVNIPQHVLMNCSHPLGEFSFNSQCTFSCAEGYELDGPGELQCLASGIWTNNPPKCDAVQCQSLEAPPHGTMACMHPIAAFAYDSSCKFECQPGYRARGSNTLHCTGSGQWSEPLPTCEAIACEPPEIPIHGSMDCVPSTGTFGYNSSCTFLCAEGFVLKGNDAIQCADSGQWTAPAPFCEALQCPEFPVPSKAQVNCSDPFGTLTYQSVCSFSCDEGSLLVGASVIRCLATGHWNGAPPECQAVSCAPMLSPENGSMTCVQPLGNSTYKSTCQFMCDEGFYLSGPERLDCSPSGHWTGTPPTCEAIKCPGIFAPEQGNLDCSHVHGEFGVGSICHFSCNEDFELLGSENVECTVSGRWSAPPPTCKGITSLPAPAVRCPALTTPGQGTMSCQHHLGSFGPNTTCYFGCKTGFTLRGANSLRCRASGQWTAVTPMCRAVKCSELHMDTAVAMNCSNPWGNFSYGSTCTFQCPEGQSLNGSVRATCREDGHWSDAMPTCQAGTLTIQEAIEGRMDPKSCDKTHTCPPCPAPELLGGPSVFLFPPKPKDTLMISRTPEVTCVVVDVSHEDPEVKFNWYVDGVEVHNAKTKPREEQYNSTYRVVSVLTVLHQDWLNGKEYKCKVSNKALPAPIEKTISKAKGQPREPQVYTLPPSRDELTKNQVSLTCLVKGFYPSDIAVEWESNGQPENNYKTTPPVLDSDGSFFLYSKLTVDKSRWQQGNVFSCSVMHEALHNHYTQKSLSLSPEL
# Procedure: Flow cytometry was used to quantify binding inhibition of P-selectin-Fc chimeras to human and murine leukocytes. Heparinized whole mouse blood was collected via cardiac puncture and human blood from healthy adult volunteers was collected in citrate. Leukocytes were isolated by centrifugation at 800 g for 10 min at room temperature, platelets removed by centrifugation at 120 g for 10 min at room temperature, and red blood cells lysed using red blood cell (RBC) lysis buffer (eBiosciences). […] The interaction of P-selectin with human and murine monocytes and neutrophils was analyzed by flow cytometry (CytoFlex LX, Beckman Coulter) and quantified as percent inhibition using FlowJo. Inhibition experiments were conducted in triplicate.
# Binding of P-selectin was detected with phycoerythrin (PE)-conjugated anti-Fc antibody and quantified as mean fluorescent intensity and plotted as percent inhibition.
# [2] = tested on: platelet-leukocyte aggregates; experiment: Platelet-leukocyte aggregation in mouse whole blood (PAR4-activating peptide), flow cytometry; format: cell-based; conditions: 120 μM
# Procedure: (§1) Platelet-leukocyte aggregates were quantified in whole blood using dual-label flow cytometry (CytoFlex LX, Beckman Coulter). […] Platelet-leukocyte aggregates were quantified by two-color flow cytometry by incubating human samples with anti-CD45-APC (BD Biosciences) and anti-CD42a-FITC (BD Biosciences) and mouse samples with anti-CD45-eFluor506 (Invitrogen), anti-CD11b-APC (BD Biosciences), anti-Ly-6G-PE (BD Biosciences), and anti-CD41-FITC (BD Biosciences). […] Inhibition experiments were conducted in triplicate.
# (§2) PSGL-1/P-selectin binding are responsible for the generation of platelet-leukocyte aggregates, which leads to the release of neutrophil extracellular traps and other procoagulant factors, as well as the infiltration of leukocytes (86, 87).
# [3] = tested on: HECA-452, a monoclonal antibody specific to sLe^x; experiment: Glycopeptide microarray binding assay, HECA-452
# Procedure: (§3) For a multi-panel experiment on a single slide, the array layout was designed using Piezoarray software according to the dimension of a standard 14-chamber adaptor. The adaptor was applied on the slide to separate a single slide to 14 chambers sealed from each other during the experiment. All glycopeptides and control samples were printed on an NHS-activated glass slide in phosphate buffer (300 mM sodium phosphates, pH 8.5). The average spot volume was within 10% variation (intra-tip) of 0.33 nL. The average spot size was 100 μm. […] These AEAB derivatives and control biotin-NHNH2, all at 50 μM concentration, were printed on the microarray as controls and reference standards. After printing, the slide was placed in a high moisture chamber at 50° C. and incubated for 1 h. The slide was subsequently washed and blocked with 50 mM ethanolamine in 0.1 M Tris buffer (pH 8.0) for 1 h, dried by centrifugation, and stored desiccated at −20° C. prior to use. […] The scanned images were analyzed using ScanArray Express software.
# (§4) The binding affinity of G4 towards P-selectin was initially screened using microarray technology. G4 along with 11 additional structural variants and synthetic intermediates, as well as […] glycan standards (sLe^x, NA2, NA2,3, NA2,6, asialobiantennary, asialotetra-saccharide) were printed on an NHS-activated glass slide (FIGS. 7A-7C). The slide was then incubated with a recombinant immunoglobulin (Ig) chimera of P-sel (5 μg mL^−1) or monoclonal antibodies, PL1, specific to the N-terminal PSGL-1 peptide sequence, CHO131, specific to the Core 2 O-glycan terminated with sLe^X, or HECA-452, specific to sLe^x. The array was then washed and incubated with Alexa-488-labelled anti-human IgG antibody (5 μg/mL). […] Of note, the PL1 epitope spans residues 49-62, which includes the key sequence -L-P-E-T-E-P- (84). Thus, modification of the key T residue within the PL1 epitope alters PL1 binding, but not P-selectin binding. Binding of glycopeptide mimics was Ca2^+ dependent and inhibited by EDTA.
# [4] = in vivo; conditions: C57BL/6, mouse, iv, 8 umol/kg
# Procedure: The supernatant (80 μL) was dried in vacuo, reconstituted in nanopure water (32 μL), and an aliquot (2 μL) was injected for pre-concentration at a flow rate of 5 μL/min using an UltiMate 3000 RSLCnano ultra-high-performance liquid chromatography (UHPLC) system (Dionex) coupled to an Orbitrap Fusion Lumos mass spectrometer (Thermo Fisher Scientific). […] Following in-source fragmentation (ISF), m/z 1121.09 (z=3) was used as the quantifying peptide. Peak areas from the extracted chromatograms were used for quantification. […] Compound half-life was determined using non-compartmental analysis.
# [5] = tested on: PL1, a monoclonal antibody specific to the N-terminal PSGL-1 peptide sequence; experiment: Glycopeptide microarray binding assay, PL1
# Procedure: as §3
# (§5) The binding affinity of G4 towards P-selectin was initially screened using microarray technology. G4 along with 11 additional structural variants and synthetic intermediates, as well as five glycan standards (sLe^x, NA2, NA2,3, NA2,6, asialobiantennary, asialotetra-saccharide) were printed on an NHS-activated glass slide (FIGS. 7A-7C). […]
# [6] = tested on: human P-selectin; experiment: Glycopeptide microarray binding assay, P-selectin; conditions: human P-selectin 5 μg/mL; compounds at 50 μM
# Procedure: as §3, §4
# [7] = tested on: platelet-leukocyte aggregates; experiment: Platelet-leukocyte aggregation in human whole blood (PAR1-activating peptide), flow cytometry; format: cell-based; conditions: 120 μM
# Procedure: as §1, §2
# [8] = tested on: CHO131, a monoclonal antibody specific to the Core 2 O-glycan terminated sLe^x; experiment: Glycopeptide microarray binding assay, CHO131
# Procedure: as §3, §5
# [9] = target: T2, P-selectin (Homo sapiens, UniProt P16109); conditions: literature values; cited from earlier work
# T2 sequence (P16109 42-830): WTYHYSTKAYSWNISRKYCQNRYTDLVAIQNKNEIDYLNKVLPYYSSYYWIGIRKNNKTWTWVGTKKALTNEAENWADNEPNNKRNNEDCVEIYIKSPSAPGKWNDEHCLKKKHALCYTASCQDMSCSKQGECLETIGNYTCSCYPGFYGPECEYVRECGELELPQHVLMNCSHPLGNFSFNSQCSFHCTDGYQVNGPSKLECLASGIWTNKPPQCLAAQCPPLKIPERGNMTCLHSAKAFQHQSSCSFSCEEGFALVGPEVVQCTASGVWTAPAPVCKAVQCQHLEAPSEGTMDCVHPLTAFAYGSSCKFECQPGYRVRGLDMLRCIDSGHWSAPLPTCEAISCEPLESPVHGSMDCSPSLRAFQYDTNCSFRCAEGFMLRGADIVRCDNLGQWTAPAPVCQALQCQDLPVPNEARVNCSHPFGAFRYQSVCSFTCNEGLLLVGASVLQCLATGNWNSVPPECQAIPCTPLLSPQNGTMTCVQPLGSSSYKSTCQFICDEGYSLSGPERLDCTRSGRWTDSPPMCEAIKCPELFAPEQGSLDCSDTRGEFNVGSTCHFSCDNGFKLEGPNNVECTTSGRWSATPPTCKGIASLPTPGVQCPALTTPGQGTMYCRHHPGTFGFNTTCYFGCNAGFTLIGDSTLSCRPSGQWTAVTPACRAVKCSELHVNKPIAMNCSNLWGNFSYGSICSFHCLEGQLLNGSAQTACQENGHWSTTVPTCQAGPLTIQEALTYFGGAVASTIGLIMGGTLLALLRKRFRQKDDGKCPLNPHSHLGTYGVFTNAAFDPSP
# [10] = target: human P-selectin; experiment: Biacore surface plasmon resonance binding assay (biotinylated ligand captured, P-selectin-Ig flowed); conditions: human P-selectin-Ig 0.4-100 nM
# Procedure: Biotinylated G4 was first captured quantitatively on a streptavidin-coated sensor chip (GE Healthcare). Different amounts of P-selectin-Ig chimera (P-Sel-Ig) were incubated in the wells (0.4-100 nM) and bound P-selectin detected using fluorescently labelled anti-human IgG. PL1 and CHO131 were used to confirm the immobilization step and to compare the relative amount of glycopeptide on the chip. Bound monoclonal antibodies and P-selectin were removed from the sensor chip by injecting 10 mM glycine-HCl, pH 2.0 and 50 mM EDTA, respectively, at 20 μL/min for 30 s. The kinetic parameters were obtained by plotting the curves using a 1:1 binding model provided by the Biacore evaluation software.
# [11] = target: T2, P-selectin; conditions: reported values; cited from earlier work
# [12] = tested on: venous thrombus; experiment: Murine model of non-occlusive venous thrombosis (electrolytic injury of the inferior vena cava); format: in vivo, C57BL/6 mice; conditions: 48 h after injury; glycopeptide 8 μmol/kg IV, LMWH (enoxaparin) 6 mg/kg SC
# Text: Venous side branches were ligated or cauterized, while posterior branches were left patent. A 25-gauge stainless steel needle, attached to a silver-coated copper wire was inserted into the exposed caudal vena cava and positioned against the anterior wall (anode). […] Subsequently, the needle was removed and a cotton swab held in gentle contact with the puncture site to prevent bleeding.
molecule,measurement,setting,value
"CC(=O)N[C@H]1[C@H](OCCn2cc(CO[C@H](C)[C@H](NC(=O)[C@H](CCC(=O)O)NC(=O)[C@@H]3CCCN3C(=O)[C@H](CC(C)C)NC(=O)[C@H](Cc3ccccc3)NC(=O)[C@H](CC(=O)O)NC(=O)[C@H](Cc3ccc(CS(=O)(=O)O)cc3)NC(=O)[C@H](CC(=O)O)NC(=O)[C@H](CC(C)C)NC(=O)[C@H](Cc3ccc(CS(=O)(=O)O)cc3)NC(=O)[C@H](CCC(=O)O)NC(=O)[C@H](Cc3ccc(CS(=O)(=O)O)cc3)NC(=O)[C@H](CCC(=O)O)NC(=O)[C@H](CCCCN)NC(C)=O)C(=O)N[C@@H](CCC(=O)O)C(=O)N3CCC[C@H]3C(=O)N[C@@H](CC(C)C)C(=O)O)nn2)O[C@H](CO)[C@@H](O[C@@H]2O[C@H](CO)[C@H](O)[C@H](O[C@]3(C(=O)O)C[C@H](O)[C@@H](NC(C)=O)[C@H]([C@H](O)[C@H](O)CO)O3)[C@H]2O)[C@@H]1O[C@@H]1O[C@@H](C)[C@@H](O)[C@@H](O)[C@@H]1O [G4, KEF*EF*LDF*DFLPET(Neu5Acα2-3Galβ1-4(Fucal-3)GlcNAc)EPL] (Ac-KE[Phe(4-CH2SO3H)]E[Phe(4-CH2SO3H)]LD[Phe(4-CH2SO3H)]DFLPET(X1)EPL-OH)",IC50,"[1]; murine monocytes, read-out: IC50, P-selectin binding to murine monocytes",10 µM
same,IC50,"[1]; murine neutrophils, read-out: IC50, P-selectin binding to murine neutrophils",10 µM
same,Inhibition of murine platelet-monocyte aggregates,[2],41%
same,Inhibition of murine platelet-neutrophil aggregates,[2],38%
same,Binding of HECA-452 on microarray,[3],strongly bound
same,half-life,[4],13.2 ± 5.04 min
same,Binding of PL1 on microarray,[5],neither PL1 or CHO131 bound
same,Binding to P-selectin on microarray,[6],strongly bound
same,Inhibition of human platelet-monocyte aggregates,[7],33%
same,Inhibition of human platelet-neutrophil aggregates,[7],28%
same,Binding of CHO131 on microarray,[8],neither PL1 or CHO131 bound
C[C@@H]1O[C@@H](O[C@@H]2[C@@H](NC(=O)c3cc(=O)[nH]c(=O)[nH]3)C[C@@H](C(=O)NCCNC(=O)COCCOCC(=O)Nc3cc(S(=O)(=O)O)cc4cc(S(=O)(=O)O)cc(S(=O)(=O)O)c34)C[C@H]2O[C@@H]2O[C@H](CO)[C@H](O)[C@H](O[C@@H](CC3CCCCC3)C(=O)O)[C@H]2OC(=O)c2ccccc2)[C@@H](O)[C@H](O)[C@@H]1O [GMI-1070],IC50,[9],423 µM
"O=C(O)c1c(O)c(C2(c3ccc(Cl)cc3)CC2)nc2c(C(F)(F)F)cccc12 [PSI-421, 2-[1-(4-chlorophenyl)cyclopropyl]-3-hydroxy-8-(trifluoromethyl)quinoline-4-carboxylic acid]",IC50,[9],225 µM
"EY*EY*LDY*DFLPET(Neu5Acα2-3Galβ1-4(Fucal-3)GlcNAcβ1-6Galβ1-3GalNAcα)EPPEM (EYEYLDYDFLPET(Neu5Acα2‑3Galβ1‑4(Fucal-3)GlcNAcβ1‑6Galβ1‑3GalNAcα)EPPEM; not fully specified (residues 2, 4, 7)) [GSP-6]",Binding of HECA-452 on microarray,[3],strongly bound
same,Binding to P-selectin on microarray,[6],strongly bound
"KEF*EF*LDF*DFLPET(Neu5Acα2-3Galβ1-4(Fucal-3)GlcNAcβ1-6(Galβ1-3)GalNAcα)EPL (KEFEFLDFDFLPET(Neu5Acα2‑3Galβ1‑4(Fucal-3)GlcNAcβ1‑6(Galβ1-3)GalNAcα)EPL; not fully specified (residues 3, 5, 8)) [GSnP-6, previously reported glycosulfonopeptide P-selectin antagonist, reference compound]",Kd,[10],0.027 µM
same,Kd,[11],0.022 µM and 0.027 µM
same,Binding of HECA-452 on microarray,[3],strongly bound
same,Binding to P-selectin on microarray,[6],strongly bound
enoxaparin,venous thrombus formation / thrombus weight versus saline vehicle,[12],significant reduction
